The conditions of data set [1]: patients with cancer, 150 mg/day dose; compared with average plasma concentration targeted for clinical efficacy; cited from earlier work.
In a further data set the test system is advanced NSCLC. The experiment in a line: open-label predictive marker identification Phase II study of Tarceva monotherapy. It is filed as in vivo, human. The conditions noted are these: 264 enrolled patients, 150 mg/day oral. As for the experimental part:
Based on the experience from the BR.21 study, benefiting population was defined as either having objective response, or disease stabilization for ≧12 weeks. Clinical and microarray datasets were analyzed according to a pre-defined statistical plan.
The selection of this dose was based on pharmacokinetic parameters, as well as the safety and tolerability profile of this dose observed in Phase I, II and III trials in heavily pre-treated patients with advanced cancer. Drug levels seen in the plasma of patients with cancer receiving the 150 mg/day dose were consistently above the average plasma concentration of 500 ng/ml targeted for clinical efficacy.
This was an open-label, predictive marker identification Phase II study. The study was conducted in approximately 26 sites in about 12 countries. 264 patients with advanced NSCLC following failure of at least one prior chemotherapy regimen were enrolled over a 12 month period. […] Dose reductions were permitted based on tolerability to drug therapy. Clinical and laboratory parameters were assessed to evaluate disease control and toxicity. Treatment continued until disease progression, unacceptable toxicity or death.
The RECIST (Uni-dimensional Tumour Measurement) criteria were used to evaluate response. […]
A regular status check every 3 months was performed either by a patient's visit to the clinic or by telephone. All deaths were recorded. […]

Data set [2] concerns NSCLC. As to conditions: single agent, patients for whom standard therapy for advanced disease has failed, versus placebo; cited from earlier work.
The test system of data set [3] is NSCLC. The conditions noted are these: cited from earlier work.
The subject of data set [4] is NSCLC. As to conditions: second line therapy of NSCLC; cited from earlier work.

Structures are written as SMILES. Like-named read-outs stand apart in the source and are kept apart here. Some results are limits rather than exact numbers.

As to `C#Cc1cccc(Nc2ncnc3cc(OCCOC)c(OCCOC)cc23)c1` [Erlotinib], the “drug levels in plasma” value in data set [1] was over 500 ng/mL. In the data set with advanced NSCLC, the median overall survival was 7.6 (CI 7-9) months and the median progression-free survival was 11.3 (CI 8-12) weeks. The “survival of NSCLC patients” value with NSCLC [2] is “significantly prolongs and improves the survival”.

Take `CC(=O)O[C@@]12CO[C@@H]1C[C@H](O)[C@@]1(C)C(=O)[C@H](O)C3=C(C)[C@@H](OC(=O)[C@H](O)[C@@H](NC(=O)OC(C)(C)C)c4ccccc4)C[C@@](O)([C@@H](OC(=O)c4ccccc4)[C@H]21)C3(C)C` [docetaxel]: the survival result is reported as “improved survival” with NSCLC [3] (second line after cisplatin-based first-line regimens failed, all ages, ECOG performance status 0, 1 or 2) and “no prolongation of survival” in the data set with NSCLC [3] (third-line treatment or beyond).

In the case of `Nc1nc2[nH]cc(CCc3ccc(C(=O)N[C@@H](CCC(=O)O)C(=O)O)cc3)c2c(=O)[nH]1` [pemetrexed], in the data set on NSCLC [4], the “efficacy compared with docetaxel” value is recorded as “clinically equivalent efficacy” and the “side effects compared with docetaxel” value is given as “significantly fewer side effects”.

The values are drawn from patent publication US20110218212A1, “PREDICTIVE MARKERS FOR EGFR INHIBITORS TREATMENT” (priority 2007, published 2011).
